Source: US20250129023A1, “[…]” (Reunion Neuroscience, Inc., priority 2020, published 2025)
Structures can show the parent of a compound that is named as a salt.

Experiments:
[1] = test system: human patient suffering depression; assay: Use in treatment of a human patient suffering depression; assay type: in vivo; conditions: i.m. or s.c. injection (ca. 25 mg) or oral (ca. 50-200 mg)
Protocol: The compound of example 6 (N,N diisopropyltryptamine-4-glutarate) is administered by i.m. or s.c. injection (ca. 25 mg; 0.4-0.5 mg/kg) to a human patient suffering depression, or by oral administration (ca. 50-200 mg; 0.8-3.2 mg/kg) with tablets. In another example of use, the compound of example 6 (4-hemiglutarate of 4-OH-DiPT) is similarly administered. Prior to the dosing session, the patient is qualified for the experience by measurement of depression scores, screened for exclusions (e.g. history of psychoses, unfavorable heart condition, pregnancy) and finally, the patient is encouraged to formulate an intent for the dosing session. Dosing is performed in a quiet clinic setting with the patient resting comfortably in an inclined, but unrestrained, position to avoid falls. The patients' eyes are covered, and music is applied. The drug is administered. After 4 h, the patient reports no longer feeling the effects of the drug and is asked to sit up while under supervision. Feeling normal, the patient is allowed to stand (supervised) and feeling in control, is allowed to move around. One hour later, the patient is discharged. Later by 24 h, the patient returns to the clinic to meet with a psychotherapist to recount the session. The patient records a depression score via questionnaire and is again discharged. […]

[2] = Pharmacokinetics and subjective effects in human volunteers; assay type: in vivo; conditions: standardized questionnaires
Protocol: The compound from example 6 (N,N diisopropyltryptamine-4-glutarate) is administered to human volunteers by subcutaneous injection of a sterile solution (1 mg/ml) at a dosage of 0.1-0.6 mg/kg. Blood samples are taken at 5, 15, 30, 45, 60, 120, 240 and 480 min and 24 h. Samples are analyzed by LCMS for drug and prodrug. Subjective effects are measured using standardized questionnaires.
The compound from example 2 (4-hemisuccinate of 4-OH-DiPT) is administered to human volunteers by oral ingestion of a tablet containing 50 mg of the prodrug. Blood samples are taken at 5, 15, 30, 45, 60, 120, 240 and 480 min and 24 h. Samples are analyzed by LCMS for drug and prodrug. Subjective effects are measured using standardized questionnaires.

[3] = Solubility in water; assay type: physicochemical; conditions: HCl salt solid
Protocol: The structure was confirmed by NMR. Purity was determined by HPLC (>97%). The solid was resuspended in […] HCl-dioxane to form the HCl salt which was filtered, washed with ether and dried. Yield (>95%, purity >95%; DSC endotherm 174C). The solid could be dissolved in water up to 50 mg/ml and lyophilized to form a white “cake”.

[4] = Prodrug hydrolysis in dog plasma at 37° C; assay type: in vitro ADME; conditions: 1.0 ug/mL
Protocol: (§1) Pooled mixed gender human plasma (2 ml), mouse plasma, rat plasma and dog plasma were equilibrated at 37° C. The compound of example 9 was added so as to achieve a concentration of 1.0 ug/mL. Aliquots (50 uL) of the mixture were withdrawn at timed intervals (0, 0.004, 0.5, 1, 2 and 4 hours) and quenched with 200 uL of methanol/acetonitrile (1:1). The samples were vortexed and stored at −80° C. until analysis. Assays were done in triplicate. Control samples were done in phosphate buffered saline (PBS, pH 7.4) and simulated gastric fluid (SGF, pH 2). Analysis of samples as performed by HPLC-MS to determine the amounts of prodrug and drug in each sample tested. Table 1 provides the mean concentrations of prodrug remaining at different time points of the experiment.

[5] = Control hydrolysis in phosphate buffered saline (PBS); assay type: physicochemical; conditions: PBS (pH 7)
Protocol: as §1

[6] = Prodrug hydrolysis in mouse plasma at 37° C; assay type: in vitro ADME; conditions: 1.0 ug/mL
Protocol: as §1

[7] = Control hydrolysis in simulated gastric fluid (SGF, pH 2); assay type: physicochemical
Protocol: as §1

[8] = Prodrug hydrolysis in rat plasma at 37° C; assay type: in vitro ADME; conditions: 1.0 ug/mL
Protocol: as §1

[9] = Prodrug hydrolysis in pooled mixed gender human plasma at 37° C; assay type: in vitro ADME; conditions: 1.0 ug/mL
Protocol: as §1

[10] = Pharmacokinetics in rats (i.v. and s.c. injection, LCMS of drug and prodrug); assay type: in vivo; conditions: rodent, 1.4-2 mg/kg
Protocol: The compound from example 9 was administered to rats by injection (intravenous and subcutaneous) with a sterile solution (2 mg/ml) at a rate of 1.4-2 mg/kg. Blood samples were taken at 15, 30, 45, 60, 120, 240 min and 360 min and analyzed by LCMS for drug and prodrug. PK profile for the prodrug and active species were obtained and relative bioavailability was determined for each of the routes of administration.
Pharmacokinetics of 1.34 mg/ml 4-HO-DiPT HCl administered by intravenous or subcutaneous injection were performed in parallel under identical conditions as above. […] Immediately obvious is the increased variability with the active species when administered s.c. and intravenous administrations.

[11] = test system: rats; assay: Head Twitch Response (HTR) / Wet Dog Shakes by visual observation; assay type: in vivo; conditions: after injection of the compound from example 9, highest intensity at the Tmax of the PK profile
Protocol: In some cases, Head Twitch Response (HTR) or Wet Dog Shakes (WDS) were recorded by visual observation and counting of the relevant muscle twitches.

SMILES: CC(C)N(CCc1c[nH]c2cccc(OC(=O)CCCC(=O)O)c12)C(C)C [Example 6, N,N diisopropyltryptamine-4-glutarate]
- Time after which the patient reports no longer feeling the effects of the drug [1]: 4 h
- Subjective effects (intensity of psychoactivity) ([2]; subcutaneous injection, 0.1-0.6 mg/kg): correlates with blood levels
- Solubility in water [3]: up to 50 mg/ml

SMILES: CC(C)N(CCc1c[nH]c2cccc(OC(=O)CCC(=O)O)c12)C(C)C [Example 2, 4-hemisuccinate of 4-hydroxy-diisopropyltryptamine (4-OH-DiPT)]
- Subjective effects (intensity of psychoactivity) ([2]; oral tablet 50 mg): correlates with blood levels

SMILES: CC(C)N(CCc1c[nH]c2cccc(OC(=O)CCCC(=O)O)c12)C(C)C [Example 9, HCl salt of N,N diisopropyltryptamine-4-glutarate]
- Percentage of remaining prodrug ([4]; time 0 h): 100%
- Percentage of remaining prodrug ([4]; time 0.004 h): 100%
- Percentage of remaining prodrug ([4]; time 0.5 h): 87%
- Percentage of remaining prodrug ([4]; time 1 h): 79%
- Percentage of remaining prodrug ([4]; time 2 h): 64%
- Percentage of remaining prodrug ([4]; time 4 h): 39%
- Percentage of remaining prodrug ([5]; time 0 h): 100%
- Percentage of remaining prodrug ([5]; time 4 h): 93%
- Percentage of remaining prodrug ([6]; time 0 h): 100%
- Percentage of remaining prodrug ([6]; time 0.004 h): 0%
- Percentage of remaining prodrug ([6]; time 0.5 h): 0%
- Percentage of remaining prodrug ([6]; time 1 h): 0%
- Percentage of remaining prodrug ([6]; time 2 h): 0%
- Percentage of remaining prodrug ([6]; time 4 h): 0%
- Percentage of remaining prodrug ([7]; time 0 h): 100%
- Percentage of remaining prodrug ([7]; time 0.004 h): 100%
- Percentage of remaining prodrug ([7]; time 0.5 h): 100%
- Percentage of remaining prodrug ([7]; time 1 h): 100%
- Percentage of remaining prodrug ([7]; time 4 h): 101%
- Percentage of remaining prodrug ([8]; time 0 h): 100%
- Percentage of remaining prodrug ([8]; time 0.004 h): 0%
- Percentage of remaining prodrug ([8]; time 0.5 h): 0%
- Percentage of remaining prodrug ([8]; time 1 h): 0%
- Percentage of remaining prodrug ([8]; time 2 h): 0%
- Percentage of remaining prodrug ([8]; time 4 h): 0%
- Percentage of remaining prodrug ([9]; time 0 h): 100%
- Percentage of remaining prodrug ([9]; time 0.004 h): 100%
- Percentage of remaining prodrug ([9]; time 0.5 h): 3.0%
- Percentage of remaining prodrug ([9]; time 1 h): 0.23%
- Percentage of remaining prodrug ([9]; time 2 h): 0%
- Percentage of remaining prodrug ([9]; time 4 h): 0%
- Prodrug in blood samples after injection [10]: prodrug was not observed

SMILES: CC(C)N(CCc1c[nH]c2cccc(O)c12)C(C)C [Example 4-HO-DIPT, 4-hydroxy-N,N-diisopropyltryptamine]
- Intensity of the HTR versus plasma concentration [11]: proportional to the plasma concentration
